Experimental data from patent US9296741B2, “Bromodomain inhibitors” (priority 2012, dated 2016).
pEC50, pKi: −log10 of the molar value.

Columns and labels:
[1] = Human liver microsome stability assay; assay type: in vitro ADME; conditions: both sexes, human, microsomes, pH 7.4
[2] = target: human BRD4 first bromodomain (BDI_K57-E168) (Homo sapiens (Human), UniProt O60885); assay: TR-FRET bromodomain binding assay, BRD4 first bromodomain
[3] = test system: breast cancer cell line MX-1; assay: MX-1 cell line proliferation assay; assay type: cell-based, human; conditions: Homo sapiens, MX1, 72 h; MX-1 cells, 3-day proliferation, Cell Titer Glo; read-out: Cellular proliferation: EC50
[4] = Rat liver microsome stability assay; assay type: in vitro ADME; conditions: rat liver microsomes (male Sprague-Dawley), 0.5 μM test compound, pH 7.4, 37° C.; for half-life at 0.5 μM: 0.25 mg/mL microsomal protein, read-out: Stability in rat liver microsomes (t1/2 in minutes); for Stability in rat liver microsomes (t1/2 in minutes): […] microsomal protein
[5] = Mouse liver microsome stability assay; assay type: in vitro ADME; conditions: male, CD1, mouse, microsomes, pH 7.4
[6] = target: human BRD4 second bromodomain (BDII_E352-M457) (Homo sapiens (Human), UniProt O60885); assay: TR-FRET bromodomain binding assay, BRD4 second bromodomain

Compound | half-life at 0.5 μM [1] [min] | pKi [2] | pEC50 [3] | half-life at 0.5 μM [4] [min] | half-life at 0.5 μM [5] [min] | pKi [6] | Stability in rat liver microsomes (t1/2 in minutes) [4] [min]
Cn1cc(-c2cc(S(C)(=O)=O)ccc2OCC2CCCC2)c2cc[nH]c2c1=O [Example 214, 4-[2-(cyclopentylmethoxy)-5-(methylsulfonyl)phenyl]-6-methyl-1,6-dihydro-7H-pyrrolo[2,3-c]pyridin-7-one] | 27 | 8.62 | 7.98 | 9 | 8 | 8.77 | –
Cn1cc(-c2cc(CO)ccc2Oc2ccccc2)c2cc[nH]c2c1=O [Example 20, 4-[5-(hydroxymethyl)-2-phenoxyphenyl]-6-methyl-1,6-dihydro-7H-pyrrolo[2,3-c]pyridin-7-one] | 18 | 7.96 | 6.72 | – | 7 | 9.17 | 1
CNS(=O)(=O)Nc1ccc(OC2CCC(F)(F)CC2)c(-c2cn(C)c(=O)c3[nH]ccc23)c1 [Example 104, N-{4-[(4,4-difluorocyclohexyl)oxy]-3-(6-methyl-7-oxo-6,7-dihydro-1H-pyrrolo[2,3-c]pyridin-4-yl)phenyl}-N′-methylsulfuric diamide] | 27 | 8.36 | 7.19 | 8 | 7 | 7.75 | –
Cn1cc(-c2cc(C(=O)NCc3ccccn3)ccc2Oc2ccc(F)cc2F)c2cc[nH]c2c1=O [Example 129, 4-(2,4-difluorophenoxy)-3-(6-methyl-7-oxo-6,7-dihydro-1H-pyrrolo[2,3-c]pyridin-4-yl)-N-(pyridin-2-ylmethyl)benzamide] | 54 | 7.42 | 6.93 | 38 | 12 | 7.34 | –
CCN(C)C(=O)c1cc2c(-c3cc(NS(C)(=O)=O)ccc3Oc3ccccc3)nn(C)c(=O)c2[nH]1 [Example 83, N-ethyl-N,6-dimethyl-4-{5-[(methylsulfonyl)amino]-2-phenoxyphenyl}-7-oxo-6,7-dihydro-1H-pyrrolo[2,3-d]pyridazine-2-carboxamide] | – | 7.68 | 6.37 | 3 | 43 | 7.37 | –
CCOC(=O)c1ccc(NC2CCCC2)c(-c2cn(C)c(=O)c3[nH]ccc23)c1 [Example 40, ethyl 4-(cyclopentylamino)-3-(6-methyl-7-oxo-6,7-dihydro-1H-pyrrolo[2,3-c]pyridin-4-yl)benzoate] | 13.1 | – | 6.78 | – | 6 | – | 1
Cn1cc(-c2ccccc2CN2CCOCC2)c2cc[nH]c2c1=O [Example 12, 6-methyl-4-[2-(morpholin-4-ylmethyl)phenyl]-1,6-dihydro-7H-pyrrolo[2,3-c]pyridin-7-one] | 51 | – | < 5.52 | 10 | 33 | – | –
CCNc1ccc(Oc2ccccc2)c(-c2nn(C)c(=O)c3[nH]c(C(=O)OCC)cc23)c1 [Example 75, ethyl 4-[5-(ethylamino)-2-phenoxyphenyl]-6-methyl-7-oxo-6,7-dihydro-1H-pyrrolo[2,3-d]pyridazine-2-carboxylate] | 9 | – | 6.32 | 3 | 4 | – | –
Cn1cc(-c2cc(C(=O)N3CCCC3)ccc2Oc2ccc(F)cc2F)c2cc[nH]c2c1=O [Example 55, 4-[2-(2,4-difluorophenoxy)-5-(pyrrolidin-1-ylcarbonyl)phenyl]-6-methyl-1,6-dihydro-7H-pyrrolo[2,3-c]pyridin-7-one] | 25 | – | 6.70 | 9 | 13 | – | –
Cn1cc(-c2cc(NS(=O)(=O)CC(F)(F)F)ccc2OC2CCCOC2)c2cc[nH]c2c1=O (stereo not shown) [Example 107, 2,2,2-trifluoro-N-[3-(6-methyl-7-oxo-6,7-dihydro-1H-pyrrolo[2,3-c]pyridin-4-yl)-4-(tetrahydro-2H-pyran-3-yloxy)phenyl]ethanesulfonamide] | 71 | – | 7.51 | 16 | 8 | – | –
Cn1cc(-c2cc(NS(=O)(=O)CCF)ccc2Oc2ccc(F)cc2F)c2cc[nH]c2c1=O [Example 64, N-[4-(2,4-difluorophenoxy)-3-(6-methyl-7-oxo-6,7-dihydro-1H-pyrrolo[2,3-c]pyridin-4-yl)phenyl]-2-fluoroethanesulfonamide] | – | 7.27 | 6.11 | 3 | 4 | 7.20 | –

Now from value to compound:

half-life at 0.5 μM [1] [min] | pKi [2] | pEC50 [3] | half-life at 0.5 μM [4] [min] | half-life at 0.5 μM [5] [min] | pKi [6] | Stability in rat liver microsomes (t1/2 in minutes) [4] [min] | Compound
12 | 7.74 | 6.88 | 108 | > 120 | 6.89 | – | Cn1cc(-c2cc(S(C)(=O)=O)ccc2Oc2ccc(F)cc2F)c2cc(CNC3CCOC3)[nH]c2c1=O (stereo not shown) [Example 284, 4-[2-(2,4-difluorophenoxy)-5-(methylsulfonyl)phenyl]-6-methyl-2-[(tetrahydrofuran-3-ylamino)methyl]-1,6-dihydro-7H-pyrrolo[2,3-c]pyridin-7-one]
5 | 8.24 | 7.77 | 4 | 3 | 8.46 | – | Cn1cc(-c2cc(S(=O)(=O)N3CCCC3)ccc2OCC2CC2)c2cc[nH]c2c1=O [Example 302, 4-[2-(cyclopropylmethoxy)-5-(pyrrolidin-1-ylsulfonyl)phenyl]-6-methyl-1,6-dihydro-7H-pyrrolo[2,3-c]pyridin-7-one]
74 | 7.10 | 7.12 | > 120 | 91 | 8.06 | – | Cn1cc(-c2cc(S(C)(=O)=O)ccc2Oc2ccc(F)cc2F)c2cc(C(=O)NCC(F)(F)F)[nH]c2c1=O [Example 254, 4-[2-(2,4-difluorophenoxy)-5-(methylsulfonyl)phenyl]-6-methyl-7-oxo-N-(2,2,2-trifluoroethyl)-6,7-dihydro-1H-pyrrolo[2,3-c]pyridine-2-carboxamide]
3 | 8.52 | 7.46 | 7 | 2 | 8.46 | – | Cn1cc(-c2cc(S(C)(=O)=O)ccc2OC2C3CC4CC(C3)CC2C4)c2cc[nH]c2c1=O (stereo not shown) [Example 237, 6-methyl-4-{5-(methylsulfonyl)-2-[tricyclo[3.3.1.1^3,7]dec-2-yloxy]phenyl}-1,6-dihydro-7H-pyrrolo[2,3-c]pyridin-7-one]
6 | 8.59 | 7.63 | 8 | 7 | 8.82 | – | Cn1cc(-c2cc(S(C)(=O)=O)ccc2OCC2C[C@@H]3CC[C@H]2C3)c2cc[nH]c2c1=O (stereo partly drawn) [Example 230, 4-{2-[(1S,4R)-bicyclo[2.2.1]hept-2-ylmethoxy]-5-(methylsulfonyl)phenyl}-6-methyl-1,6-dihydro-7H-pyrrolo[2,3-c]pyridin-7-one]
23 | 8.54 | 7.67 | 12 | 11 | 8.72 | – | CC(C)S(=O)(=O)c1ccc(Oc2ccc(F)cc2F)c(-c2cn(C)c(=O)c3[nH]ccc23)c1 [Example 271, 4-[2-(2,4-difluorophenoxy)-5-(propan-2-ylsulfonyl)phenyl]-6-methyl-1,6-dihydro-7H-pyrrolo[2,3-c]pyridin-7-one]
– | 7.50 | 6.44 | 41 | 91 | 6.88 | – | CN(C)Cc1cc2c(-c3cc(S(C)(=O)=O)ccc3Oc3ccc(F)cc3F)cn(C)c(=O)c2[nH]1 [Example 279, 4-[2-(2,4-difluorophenoxy)-5-(methylsulfonyl)phenyl]-2-[(dimethylamino)methyl]-6-methyl-1,6-dihydro-7H-pyrrolo[2,3-c]pyridin-7-one]
34 | 6.18 | 6.29 | – | 21 | 5.93 | – | Cn1cc(-c2cc(-c3cccc(F)c3)ccc2OCC2CC2)c2cc[nH]c2c1=O [Example 334, 4-[4-(cyclopropylmethoxy)-3′-fluorobiphenyl-3-yl]-6-methyl-1,6-dihydro-7H-pyrrolo[2,3-c]pyridin-7-one]
> 120 | – | 7.73 | 57 | 116 | – | – | CCS(=O)(=O)Nc1ccc(Oc2ccc(F)cc2F)c(-c2cn(C)c(=O)c3[nH]ncc23)c1 [Example 320, N-[4-(2,4-difluorophenoxy)-3-(6-methyl-7-oxo-6,7-dihydro-1H-pyrazolo[3,4-c]pyridin-4-yl)phenyl]ethanesulfonamide]
> 120 | – | 6.32 | > 120 | > 120 | – | – | CCS(=O)(=O)c1ccc(N2CCN(C)CC2)c(-c2cn(C)c(=O)c3[nH]ccc23)c1 [Example 331, 4-[5-(ethylsulfonyl)-2-(4-methylpiperazin-1-yl)phenyl]-6-methyl-1,6-dihydro-7H-pyrrolo[2,3-c]pyridin-7-one]
> 120 | – | 7.42 | > 120 | > 120 | – | – | CCS(=O)(=O)c1ccc(OCC2CC2)c(-c2cn(C)c(=O)c3[nH]ncc23)c1 [Example 323, 4-[2-(cyclopropylmethoxy)-5-(ethylsulfonyl)phenyl]-6-methyl-1,6-dihydro-7H-pyrazolo[3,4-c]pyridin-7-one]
